# Test results reported in US6805880B1, “Pharmaceutical delivery system for vitamin C and vitamin E and use of a combination of vitamin C and E for preventing or treating conditions involving oxidative stress” (Ferrosan A/S, priority 1999, dated 2004).
# Like-named read-outs stand apart in the source and are kept apart here.
# Key:
# [1] = Method: (§1) The study consisted of 8-week dietary counseling and placebo lead-in phase and a 3-year double-masked phase, for which the subjects were randomly allocated to either (i) […] of d-α-tocopheryl acetate twice daily (272 IU of vitamin E a day), ii) 250 mg slow-release ascorbic acid twice daily, (iii) both d-α-tocopheryl acetate and ascorbic acid in a single tablet, or (iv) placebo only. After the double-blind 3-year period, the study is continuing for another three years as an open study. The doses were chosen on the basis of pilot and kinetic studies (13, 15). The subjects were randomised separately in four strata of approximately equal size: (1) smoking (^35 cigarettes/day) men, (2) nonsmoking men, (3) smoking postmenopausal women, and (4) nonsmoking postmenopausal women. All subjects gave a written informed consent.
# [2] = tested on: common carotid artery intima-media thickness; test: ASAP study: progression of common carotid atherosclerosis (slope of ultrasonographic mean CCA-IMT); type: in vivo, human; conditions: for mean adjusted 3-year change of the mean carotid artery intima-media thickness (supplement: Yes): multivariate general linear model; for OR of atherosclerotic progression: double placebo as reference; for average unadjusted increase (slope) of the mean CCA-IMT: 3 years; for treatment effect on the proportion with progression: compared with placebo
# Method: All subjects gave a written informed consent.
# The subjects came to baseline visits and were randomised. Follow-up visits were 6, 12, 18, 24, 30 and 36 months later. Supplements were given, returned tablets were counted and ultrasonographic assessment of common carotid artery (CCA) intima-media thickness (IMT) was carried out at all these seven visits.
# Equipment: Two identical Biosound Phase 2 systems were used (Biosound, Indianapolis, Ind., USA) equipped with a 8-10 MHz annular array transducer, with a measurement precision of 0.03 mm (41). The scannings were videotaped with PAL S-VHS Panasonic AG 7330E VCR.
# Scanning (imaging) procedure and videorecording: The ultrasonographic scanning of the common carotid arteries (CCA), the carotid bulbs and the proximal internal carotid artery (ICA) was performed after a supine rest of 10 minutes, the subject in the supine position. […] The scanning was started with a diagnostic examination of entire accessible carotid tree, to find the most severe lesions. Secondly, the site of the greatest IMT at baseline in the CCA far wall was located and scanned thoroughly. This area was scanned from three angles: anterolateral, lateral and posterolateral.
# Measurement from videotapes: All IMT measurements (both baseline and follow-up) from videotapes were made at the same site and angle at all examinations of each subject, which was the site with the greatest IMT (in any angle) which was clearly visible at baseline in the far wall of in CCA below the bulb. At this location IMT was measured in diastole for a length of 10 mm (or shorter, if not visible) in one angle for the far wall. Most often this was the distal centimeter of CCA. All IMT measurements were carried out after the 36-month examination.
# Ultrasound image analysis: Computer analysis of ultrasound images to measure IMT was performed with a reading station equipped with Data Translation DT 2861 video frame grabber interfaced to a Panasonic AG 7355 VCR. The Prosound software, utilising automated boundary detection, was used. IMT was determined as the average difference at on the average 100 points between intima/lumen and media/adventitia interface (42).
# Construction of the main outcome variable: Atherosclerotic progression was defined a priori as the linear regression slope of the mean common carotid IMT over six or seven points of follow-up time (0, 6, 12, 18, 24, 30 and 36 months). For 34 subjects, one follow-up was missing. First, the mean CCA-IMT from the right and the left side was averaged, and then the slope was computed across time-specific means.
# All study participants for whom the main outcome variable was available, were included in the statistical analysis. Analyses were according to the intention-to-treat principle. As the subjects were randomised separately in four strata (smoking men, non-smoking men, smoking women, non-smoking women), this stratification was maintained also in the statistical analysis. As the a priori power calculations were based on stratified analysis in men and women, the primary statistical analysis was done in these two strata (Table 6).
# To test the consistency of results, the outcome variable, the slope of the mean CCA-IMT over all available follow-up assessments, was used both as a continuous variable in general linear models and as a dichotomous variable in logistic models. The cut-off for the dichotomisation was the median among all 225 men. […] Odds ratios were estimated as antilogarithms of coefficients and their confidence intervals (Cl) based on normality assumption of SPSS 8.0 for Windows.
# Three dummy variables were constructed to indicate whether the participant was randomised to receive only vitamin E, only vitamin C or both vitamins, and these were entered jointly in logistic models. The comparisons in the linear models were between each treatment group and all other groups. […]
# [3] = in vivo
# Method: The inventors conducted a controlled trial with a formulation including both slow release vitamin C and conventional release vitamin E (250 mg AA and 91 mg α-tocopherol). 520 men and women, smokers and non-smokers, were randomised to vitamin C slow release, vitamin E, a formulation with vitamin E and slow release vitamin C, or placebo (Table 4).
# In a double-masked 2×2 factorial trial, 520 smoking and non-smoking men and postmenopausal women aged 45-69 years with serum cholesterol ^35.0 […] were randomised in these four strata to receive either 182 mg of d-α-tocopheryl acetate, 500 mg of slow-release vitamin C daily, both or placebo for three years. Atherosclerotic progression was defined as linear regression slope of the mean ultrasonographically assessed common carotid intima-media thickness (IMT) over time.
# as §1
# Ascorbic acid was stabilised in heparin plasma with metaphosphoric acid immediately after plasma separation, and frozen at −80° C. Combined ascorbic acid and dehydroascorbic acid were determined with an HPLC method (39). Heparin plasma for α-tocopherol was extracted with ethanol and hexane and measured by a reversed phase HPLC method (15). Cholesterol and triglycerides were determined with enzymatic […] methods (30). Serum LDL cholesterol was measured based on precipitation using polyvinyl sulfate and HDL cholesterol after precipitation with magnesium chloride (30). Plasma fibrinogen concentration was determined with a clotting method (30), plasma homocysteine with an HPLC method (44), and serum ferritin by an immunoradiometric assay (Bio Rad, Quantimune, Hercules, Calif.). Dietary intake of foods and nutrients was assessed at baseline by 4-day instructed food recording. Physical activity was assessed by 12-month checked questionaire (43). Blood pressure was measured manually in sitting position after a rest of 10 minutes, three measurements at 3 minutes' intervals.
# [4] = female, human, in vivo, 3 years
# [5] = men (n = 225), multivariate logistic model
# [6] = women (n = 233), multivariate logistic model
Structure (SMILES),safety of the supplements ([1]; 3 years),"drop-outs: Death ([1]; men, number of subjects)","drop-outs: Death ([1]; women, number of subjects)",mean adjusted 3-year change of the mean carotid artery intima-media thickness (supplement: Yes) ([2]; men (n = 225)),"OR of atherosclerotic progression [2, 5]","average unadjusted increase (slope) of the mean CCA-IMT ([2]; men, placebo 0.020)",treatment effect on the proportion with progression ([2]; men),OR of atherosclerotic progression ([2]; non-smoking men (n = 125)),OR of atherosclerotic progression ([2]; non-smoking women (n = 123)),OR of atherosclerotic progression ([2]; smoking men (n = 100)),OR of atherosclerotic progression ([2]; smoking women (n = 110)),mean adjusted 3-year change of the mean carotid artery intima-media thickness (supplement: Yes) ([2]; women (n = 233)),"OR of atherosclerotic progression [2, 6]","average unadjusted increase (slope) of the mean CCA-IMT ([2]; women, placebo 0.016)",also measured
"O=C1O[C@H]([C@@H](O)CO)C(O)=C1O [Vitamin C, ascorbic acid]",safe,1,0,0.0119 mm/year,0.44,0.017 mm/year,non-significant,0.30,0.99,0.45,0.69,0.0174 mm/year,1.08,0.017 mm/year,"drop-outs: Adverse event [1, 4]: 2; drop-outs: Severe adverse event [1, 4]: 1; drop-outs: Adverse event ([1]; male, human, in vivo, 3 years): 2; drop-outs: Severe adverse event ([1]; male, human, in vivo, 3 years): 1; drop-outs: Death ([1]; men, number of subjects, listed as vitamin C): One; effect on atherosclerotic progression ([2]; smoking men): nonsignificant trend towards protection; change of plasma α-tocopherol (vitamin E in plasma) ([3]; female, human): 4.0%; change of plasma α-tocopherol (vitamin E in plasma) ([3]; male, human): 5.1%; mean plasma α-tocopherol concentration, after supplementation ([3]; male, human): 33.9 µmol/L; mean plasma α-tocopherol concentration, initial value ([3]; male, human): 32.3 µmol/L"
"CC(=O)Oc1c(C)c(C)c2c(c1C)CC[C@@](C)(CCC[C@H](C)CCC[C@H](C)CCCC(C)C)O2 [Vitamin E, d-α-tocopheryl acetate]",safe,3,0,0.0118 mm/year,0.56,0.018 mm/year,non-significant,1.07,1.13,0.21,0.76,0.0165 mm/year,1.05,0.015 mm/year,"drop-outs: Adverse event ([1]; men, number of subjects): 1; drop-outs: Severe adverse event ([1]; men, number of subjects): 1; drop-outs: Death ([1]; men, number of subjects, listed as vitamin): three; drop-outs: Adverse event ([1]; women, number of subjects): 3; drop-outs: Severe adverse event ([1]; women, number of subjects): 2; mean plasma α-tocopherol concentration, after supplementation [3]: 60.1 µmol/L; mean plasma α-tocopherol concentration, initial value [3]: 31.7 µmol/L"
